Test results as given in patent publication US20240090503A1, “FUNGICIDAL OXADIAZOLES AND THEIR MIXTURES” (FMC CORPORATION, priority 2020, published 2024).

How the values were obtained:
[1] = system: Phakopsora pachyrhizi (the causal agent of Asian soybean rust); test: Test A: preventive spray on soybean seedlings, Asian soybean rust, visual disease rating; type: in vivo; conditions: soybean seedlings; for pest or weed control at 10 µg/mL: Phakopsora pachyrhizi, 216 h, read-out: Test A disease control rating
Description: (§1) General protocol for preparing test suspensions for Tests A-D: the test compounds were first dissolved in acetone in an amount equal to 3% of the final volume and then suspended at the desired concentration (in ppm) in acetone and purified water (50/50 mix by volume) containing 250 ppm of the surfactant PEG400 (polyhydric alcohol esters). The resulting test suspensions were then used in Tests A-D.
(§2) The test suspension was sprayed to the point of run-off on soybean seedlings. The following day the seedlings were inoculated with a spore suspension of Phakopsora pachyrhizi (the causal agent of Asian soybean rust) and incubated in a saturated atmosphere at 22° C. for 24 h and then moved to a growth chamber at 22° C. for 8 days, after which time visual disease ratings were made.
(§3) The test results for Tests A-C presented in Table A below for compounds of Formula 1 illustrate the fungicidal activity of component (a) contributing to the plant disease control utility of compositions comprising component (a) in combination with component (b) according to the present invention. In the Table, a rating of 100 indicates 100% disease control and a rating of 0 indicates no disease control (relative to the controls). A dash (-) indicates the compound was not tested. The test suspensions were sprayed at the concentration listed in the column “Rate in ppm”, unless otherwise indicated. An asterisk “*” next to the rating indicates a 250 ppm test suspension was used, a double asterisk “**” next to the rating indicates a 100 ppm test suspension was used, and a triple asterisk “***” next to the rating indicates a 50 ppm test suspension was used.

[2] = system: Puccinia recondita f. sp. tritici (the causal agent of wheat leaf rust); test: Test C: preventive spray on wheat seedlings, wheat leaf rust, visual disease rating; type: in vivo; conditions: wheat seedlings; for pest or weed control at 10 µg/mL: Puccinia recondita, 168 h, read-out: Test C disease control rating
Description: as §1
as §2, with “on wheat” for “on soybean”, “of Puccinia recondita f. sp. tritici;” for “of Phakopsora pachyrhizi”, “of wheat leaf” for “of Asian soybean”, “at 20°” for “at 22°”, “24 h,” for “24 h”, “for 6” for “for 8”
as §3

[3] = 10 ppm test suspension, 100 = 100% disease control, 0 = no control
[4] = test suspension 10 ppm, 100 = 100% disease control, 0 = no control
[5] = 50 ppm test suspension, 100 = 100% disease control, 0 = no control

Row | Structure (SMILES) | Test A disease control rating [1, 3] | Test C disease control rating [2, 3] | Test A disease control rating [1, 4] | Test C disease control rating ([2]; test suspension 10 ppm) | further results
1 | CC(=O)NN=Cc1cnn(Cc2ccc(-c3noc(C(F)(F)F)n3)cc2)c1 [compound 389] | 100% | 100% |  |  | 
2 | CC(C)(C)NC(=O)c1cnn(Cc2ccc(-c3noc(C(F)(F)F)n3)cc2)c1 [compound 78] |  |  | 100% | 100% | 
3 | N#Cc1ccc2c(cnn2Cc2ccc(-c3noc(C(F)(F)F)n3)s2)c1 [compound 194] |  |  | 100% | 100% | 
4 | Cc1cccc2cn(Cc3ccc(-c4noc(C(F)(F)F)n4)cc3)nc12 [compound 103] |  |  | 100% | 97% | 
5 | CNC(=O)c1cnn(Cc2ccc(-c3noc(C(F)(F)F)n3)cc2)c1 [compound 61] |  |  | 100% | 100% | 
6 | CCOC(=O)c1cc(C(C)(C)C)n(Cc2ccc(-c3noc(C(F)(F)F)n3)cc2)n1 [compound 187] |  |  | 0% | 0% | 
7 | COc1cnn(Cc2ccc(-c3noc(C(F)(F)F)n3)cc2)c(=O)c1 [compound 28] |  |  |  |  | Test A disease control rating ([1]; test suspension 50 ppm): 100%; Test C disease control rating ([2]; test suspension 50 ppm): 100%
8 | COC(=O)c1cnn(CCCc2ccc(-c3noc(C(F)(F)F)n3)cc2)c1 [compound 427] |  |  |  |  | Test A disease control rating [1, 5]: 100%; Test C disease control rating [2, 5]: 67%
9 | C=C(Cl)COC(=O)c1cnn(Cc2ccc(-c3noc(C(F)(F)F)n3)cc2)c1 [compound 482] | 100% | 100% |  |  | 
10 | N#CC(C#N)NC(=O)c1coc(Cc2ccc(-c3noc(C(F)(F)F)n3)cc2)n1 [compound 203] |  |  | 100% | 86% | 
11 | N#Cc1c(Br)cnn1Cc1ccc(-c2noc(C(F)(F)F)n2)s1 [compound 77] |  |  |  |  | Test A disease control rating ([1]; test suspension 50 ppm): 100%; Test C disease control rating ([2]; test suspension 50 ppm): 100%
12 | O=C(NCc1ccccc1)c1cnn(Cc2ccc(-c3noc(C(F)(F)F)n3)cc2)c1 [compound 484] | 100% | 100% |  |  | 
13 | O=C(O)c1cnn(CCCc2ccc(-c3noc(C(F)(F)F)n3)cc2)c1 [compound 363] |  |  |  |  | Test A disease control rating ([1]; test suspension 50 ppm): 100%; Test C disease control rating ([2]; test suspension 50 ppm): 100%
14 | CC(C)ON=Cc1cnn(Cc2ccc(-c3noc(C(F)(F)F)n3)cc2)c1 [compound 388] | 100% | 100% |  |  | 
15 | O=C(O)c1cnn(Cc2ccc(-c3noc(C(F)(F)F)n3)cc2)c1 [compound 55] |  |  | 100% | 99% | 
16 | CCONC(=O)c1cnn(Cc2ccc(-c3noc(C(F)(F)F)n3)cc2)c1 [compound 380] | 100% | 100% |  |  | 
17 | COC(=O)c1cccc2c1cnn2Cc1ccc(-c2noc(C(F)(F)F)n2)cc1 [compound 341] |  |  | 100% | 100% | 
18 | CCOC(=O)c1cnn(Cc2cc(-c3noc(C(F)(F)F)n3)cs2)c1 [compound 271] |  |  | 99% | 68% | 
19 | CCCOC(=O)c1cnn(Cc2ccc3cc(-c4noc(C(F)(F)F)n4)ccc3c2)c1 [compound 416] |  |  |  |  | Test A disease control rating [1, 5]: 77%; Test C disease control rating [2, 5]: 0%
20 | Cc1cc(C(=O)N(C)C)nn1Cc1ccc(-c2noc(C(F)(F)F)n2)cc1 [compound 182] |  |  | 100% | 100% | 

Row | Structure (SMILES) | Test A disease control rating [1, 3] | Test C disease control rating [2, 3] | Test A disease control rating [1, 4] | Test C disease control rating ([2]; test suspension 10 ppm) | further results
21 | COC(=O)c1cccn(Cc2ccc(-c3noc(C(F)(F)F)n3)cc2)c1=O [compound 422] | 90% | 93% |  |  | 
22 | FC(F)(F)c1nc(-c2ccc(Cn3ncc4cccnc43)cc2)no1 [Compound 147, 1-[[4-[5-(trifluoromethyl)-1,2,4-oxadiazol-3-yl]phenyl]methyl]-1H-pyrazolo[3,4-b]pyridine] |  |  |  |  | pest or weed control at 10 µg/mL [1, 4]: 100%; pest or weed control at 10 µg/mL ([2]; test suspension 10 ppm): 100%
23 | CCCOC(=O)c1cnn(C(C)c2ccc(-c3noc(C(F)(F)F)n3)s2)c1 (centres unmarked) [compound 493] | 100% | 100% |  |  | 
24 | CCCOC(=O)c1cnn(C(C)c2ccc(-c3noc(C(F)(F)F)n3)s2)c1 (centres unmarked) [compound 248] |  |  | 100% | 100% | 
25 | CS(=O)(=O)CCOC(=O)c1cnn(Cc2ccc(-c3noc(C(F)(F)F)n3)cc2)c1 [compound 390] | 100% | 100% |  |  | 
26 | FC(F)(F)c1nc(-c2ccc(Cn3nccc3S(F)(F)(F)(F)F)cc2)no1 [compound 504] | 74% | 0% |  |  | 
27 | COc1ccc2nn(Cc3ccc(-c4noc(C(F)(F)F)n4)cc3)cc2c1 [compound 131] |  |  | 100% | 99% | 
28 | Cc1cc(C(=O)OCC#N)nn1Cc1ccc(-c2noc(C(F)(F)F)n2)cc1 [compound 184] |  |  | 100% | 55% | 
29 | CSCC(=O)COC(=O)c1cnn(Cc2ccc(-c3noc(C(F)(F)F)n3)cc2)c1 [compound 434] | 100% | 98% |  |  | 
30 | N#Cc1cccc2nn(Cc3ccc(-c4noc(C(F)(F)F)n4)cc3)cc12 [compound 107] |  |  | 100% | 90% | 
31 | CCCOC(=O)c1cnn(C(C)c2ccc(-c3noc(C(F)(F)F)n3)s2)c1 (centres unmarked) [compound 249] |  |  | 100% | 100% | 
32 | CC(C)OC(=O)c1cnn(Cc2cc(-c3noc(C(F)(F)F)n3)cs2)c1 [compound 251] |  |  | 100% | 74% | 
33 | CC(C)ONC(=O)c1cnn(Cc2ccc(-c3noc(C(F)(F)F)n3)cc2)c1 [compound 270] |  |  | 100% | 100% | 
34 | C#CCOC(=O)c1cnn(CCCc2ccc(-c3noc(C(F)(F)F)n3)cc2)c1 [compound 374] |  |  | 100% | 96% | 
35 | N#Cc1cccn(Cc2ccc(-c3noc(C(F)(F)F)n3)cc2)c1=O [compound 417] | 100% | 100% |  |  | 
36 | FC(F)(F)c1nc(-c2ccc(Cn3cc4cnc(Cl)nc4n3)cc2)no1 [compound 433] | 100% | 99% |  |  | 
37 | CCCON=Cc1cnn(Cc2ccc(-c3noc(C(F)(F)F)n3)cc2)c1 [compound 385] | 100% | 100% |  |  | 
38 | CCOC(=O)c1cc(C)n(Cc2ccc(-c3noc(C(F)(F)F)n3)cc2)n1 [Compound 110, ethyl 5-methyl-1-[[4-[5-(trifluoromethyl)-1,2,4-oxadiazol-3-yl]phenyl]methyl]-1H-pyrazole-3-carboxylate] |  |  |  |  | pest or weed control at 10 µg/mL [1, 4]: 100%; pest or weed control at 10 µg/mL ([2]; test suspension 10 ppm): 91%
39 | CCOC(=O)C1(Cc2ccc(-c3noc(C(F)(F)F)n3)cc2)CCNC1=O (centres unmarked) [compound 431] |  |  |  |  | Test A disease control rating [1, 5]: 99%; Test C disease control rating [2, 5]: 98%
40 | COC(=O)c1cccc2nn(Cc3ccc(-c4noc(C(F)(F)F)n4)cc3)cc12 [Compound 36, methyl 2-[[4-[5-(trifluoromethyl)-1,2,4-oxadiazol-3-yl]phenyl]methyl]-2H-indazole-4-carboxylate] |  |  |  |  | pest or weed control at 10 µg/mL [1, 4]: 100%; pest or weed control at 10 µg/mL ([2]; test suspension 10 ppm): 100%
